A word on the Dmax: it is the greatest extent of degradation seen. High values mean deep degradation, low ones shallow degradation. What is called IC50 is the point on the concentration scale where inhibition reaches its midpoint.

This passage reports Dmax, DC50 and IC50 results from patent publication US12310975B2, “Modulators of BCL6 proteolysis and associated methods of use” (Arvinas Operations, Inc., priority 2019, dated 2025).

Experiment [1] concerns the target T1, BCL6 (Homo sapiens (Human), UniProt P41182). The experiment can be described thus: Immunofluorescence high content imaging of BCL6 degradation in T47D cells. In kind it is cell-based. To be noted: for Dmax: T47D, maximum, class symbols A-C; for DC50: class symbols A-D, read-out: EC50 (nM)*. In outline:
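Seed T47D in RPMI1640-10% FBS to reach ~70-90% confluence at endpoint; add degrader next day (11-point 3-fold series, top 0.1 or 1 μM final) for 3 days. Then fix, permeabilize, stain BCL6 with nuclear Hoechst, and image.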

Experiment [2] concerns the target T1, BCL6. The experiment can be described thus: BCL6 TR-FRET assay (BCL6-Avitag-Biotin / BCoR-Cy5 peptide). In kind it is binding. The protocol:
Protein Synthesis. BCL6 protein was expressed by transforming Invitrogen One Shot cells with GS63525 pET24a-His-SUMO-TEV-BCLm-Avitag plasmid following manufacturer's instructions. In addition, biotin at a final concentration of 50 μM, and IPTG at a final concentration of 1 mM was added to the culture and incubated at room temperature shaking overnight.
Assay buffer A: 50 mM HEPES pH 7.5, 125 mM NaCl, 0.01% TritonX.
Assay buffer B (made fresh): buffer A+1 mM Glutathione (or 0.5 mM DTT).
Assay buffer C (made fresh): buffer B+0.03% BSA.
Black Proxy plates, 96 well.
15 μl final reaction volumes (BCoR-Cy5 100 nM, SA-Eu 2 nM, BCL6-avitag 2 nM).
[…] BCL6-Avitag-Biotin stock: made fresh by adding 2 μl of BCL6-Avitag-Biotin to 31.5 ml Buffer C.
1 mM BCoR-Cy5 peptide (LifeTein) stock in Dimethylformamide (DMF).
300 nM BCoR-Cy5 working stock: made fresh by adding 4.5 μl of the 1 mM BCoR-Cy5 peptide stock to 15 ml Buffer B.
10 μM Eu-Streptavidin (Lance Eu-W1024 Streptavidin, PerkinElmer) stock solution.
6 nM Eu-Streptavidin working stock: made fresh by adding 9 μl Eu-Streptavidin stock solution to 15 ml Buffer A.
Compounds were diluted to 10 mM. Twenty microliters of DMSO was aliquoted to each well of the microtiter plates. From the 10 mM compound stock, 8.7 ul was aliquoted to the 20 ul DMSO and 3-fold serial dilutions (12 pt 3-0.01 uM tritration plate, 96 well, 100% DMSO) performed. Five ul from the titration plate wells was aliquoted to 45 ul Buff C (Intermediate dilution plates, 10% DMSO).
Spot 1.5 μl compound titrations to 384-well plates in duplicate, and spot 3.5 μl [8.5 nM] BCL6-bio protein to each well. The plate was mix briefly, centrifuged, and incubated for 30 minutes at room temperature.
Mix 14 mls of BCoR-Cy5 [300 nM] and 14 mls [6 nM] Eu-Streptavidin. Spot 10 μl BCoR-Cy5/SA-Eu (1:1) mix to each well. The plates were incubated for 2 hours and then read on an Envision plate reader.

Setting [3] is: class symbols A-D, read-out: IC50 (nM)***.

Read-outs that look alike come from different tables or passages of the source.

Regarding `CNC(=O)COc1cc2cc(Nc3nc(N4CCC(OCCOCCOCCOCCOCCOc5ccc6c(c5)CN(C5CCC(=O)NC5=O)C6=O)CC4)ncc3Cl)ccc2n(C)c1=O` (stereo not drawn) [compound 62, 2-((6-((5-chloro-2-(4-((14-((2-(2,6-dioxopiperidin-3-yl)-1-oxoisoindolin-5-yl)oxy)-3,6,9,12-tetraoxatetradecyl)oxy)piperidin-1-yl)pyrimidin-4-yl)amino)-1-methyl-2-oxo-1,2-dihydroquinolin-3-yl)oxy)-N-methylacetamide], in experiment [1], the Dmax was at least 70% and the DC50 was over 100 nM. For the same compound, the IC50 in experiment [2] (setting [3]) lay in the range of 10 to 50 nM.

Take `CNC(=O)COc1cc2cc(Nc3nc(N4CCC(CN5CCN(c6ccc7c(c6)C(=O)N(C6CCC(=O)NC6=O)C7=O)CC5)CC4)ncc3Cl)ccc2n(C)c1=O` (stereo not drawn) [compound 104, 2-((6-((5-chloro-2-(4-((4-(2-(2,6-dioxopiperidin-3-yl)-1,3-dioxoisoindolin-5-yl)piperazin-1-yl)methyl)piperidin-1-yl)pyrimidin-4-yl)amino)-1-methyl-2-oxo-1,2-dihydroquinolin-3-yl)oxy)-N-methylacetamide]: in experiment [1], the Dmax lay within 50 to 70% and the DC50 was in the range of 10 to 50 nM. The IC50 in experiment [2] (setting [3]) lay in the range of 10 to 50 nM.

Regarding `CNC(=O)COc1cc2cc(Nc3nc(N4CCC(O[C@H]5C[C@@H](Oc6ccc7c(c6)C(=O)N(C6CCC(=O)NC6=O)C7=O)CN(C)C5)CC4)ncc3Cl)ccc2n(C(C)C)c1=O` (stereo partly drawn) [compound 457, 2-[(6-{[5-chloro-2-(4-{[(3S,5R)-5-{[2-(2,6-dioxopiperidin-3-yl)-1,3-dioxo-2,3-dihydro-1H-isoindol-5-yl]oxy}-1-methylpiperidin-3-yl]oxy}piperidin-1-yl)pyrimidin-4-yl]amino}-2-oxo-1-(propan-2-yl)-1,2-dihydroquinolin-3-yl)oxy]-N-methylacetamide], in experiment [2] (read-out: IC50), the IC50 was at least 100 nM.

For the compound `CNC(=O)COc1cc2cc(Nc3nc(N4CCC(O[C@H]5C[C@H](Oc6ccc7c(c6)C(=O)N(C6CCC(=O)NC6=O)C7=O)CN(C)C5)CC4)ncc3Cl)ccc2n(C(C)C)c1=O` (stereo partly drawn) [compound 459, 2-[(6-{[5-chloro-2-(4-{[(3S,5S)-5-{[2-(2,6-dioxopiperidin-3-yl)-1,3-dioxo-2,3-dihydro-1H-isoindol-5-yl]oxy}-1-methylpiperidin-3-yl]oxy}piperidin-1-yl)pyrimidin-4-yl]amino}-2-oxo-1-(propan-2-yl)-1,2-dihydroquinolin-3-yl)oxy]-N-methylacetamide], the IC50 in experiment [2] (read-out: IC50) was at least 100 nM.

In the case of `CNC(=O)COc1cc2cc(Nc3nc(N4CCC(O[C@@H]5C[C@H](COc6ccc7c(c6)C(=O)N(C6CCC(=O)NC6=O)C7=O)N(C)C5)CC4)ncc3Cl)ccc2n(C(C)C)c1=O` (stereo partly drawn) [compound 460, 2-[(6-{[5-chloro-2-(4-{[(3R,5R)-5-({[2-(2,6-dioxopiperidin-3-yl)-1,3-dioxo-2,3-dihydro-1H-isoindol-5-yl]oxy}methyl)-1-methylpyrrolidin-3-yl]oxy}piperidin-1-yl)pyrimidin-4-yl]amino}-2-oxo-1-(propan-2-yl)-1,2-dihydroquinolin-3-yl)oxy]-N-methylacetamide], the IC50 in experiment [2] (read-out: IC50) was at least 100 nM.

In the case of `CNC(=O)COc1cc2cc(Nc3nc(N4CCC(O[C@@H]5C[C@@H](Oc6ccc7c(c6)C(=O)N(C6CCC(=O)NC6=O)C7=O)CN(C)C5)CC4)ncc3Cl)ccc2n(C(C)C)c1=O` (stereo partly drawn) [compound 464, 2-[(6-{[5-chloro-2-(4-{[(3R,5R)-5-{[2-(2,6-dioxopiperidin-3-yl)-1,3-dioxo-2,3-dihydro-1H-isoindol-5-yl]oxy}-1-methylpiperidin-3-yl]oxy}piperidin-1-yl)pyrimidin-4-yl]amino}-2-oxo-1-(propan-2-yl)-1,2-dihydroquinolin-3-yl)oxy]-N-methylacetamide], the IC50 in experiment [2] (read-out: IC50) is at least 100 nM.

Take `CNC(=O)COc1cc2cc(Nc3nc(N4CCC(O[C@@H]5C[C@@H](COc6cccc7c6C(=O)N(C6CCC(=O)NC6=O)C7=O)N(C)C5)CC4)ncc3Cl)ccc2n(C(C)C)c1=O` (stereo partly drawn) [compound 478, 2-[(6-{[5-chloro-2-(4-{[(3R,5S)-5-({[2-(2,6-dioxopiperidin-3-yl)-1,3-dioxo-2,3-dihydro-1H-isoindol-4-yl]oxy}methyl)-1-methylpyrrolidin-3-yl]oxy}piperidin-1-yl)pyrimidin-4-yl]amino}-2-oxo-1-(propan-2-yl)-1,2-dihydroquinolin-3-yl)oxy]-N-methylacetamide]: in experiment [2] (read-out: IC50), the IC50 was at least 100 nM.

`CNC(=O)COc1cc2cc(Nc3nc(N4CCC(O[C@@H]5C[C@@H](Oc6cccc7c6C(=O)N(C6CCC(=O)NC6=O)C7=O)CN(C)C5)CC4)ncc3Cl)ccc2n(C(C)C)c1=O` (stereo partly drawn) [compound 479, 2-[(6-{[5-chloro-2-(4-{[(3R,5R)-5-{[2-(2,6-dioxopiperidin-3-yl)-1,3-dioxo-2,3-dihydro-1H-isoindol-4-yl]oxy}-1-methylpiperidin-3-yl]oxy}piperidin-1-yl)pyrimidin-4-yl]amino}-2-oxo-1-(propan-2-yl)-1,2-dihydroquinolin-3-yl)oxy]-N-methylacetamide]: the IC50 in experiment [2] (read-out: IC50) is at least 100 nM.

With `CNC(=O)COc1cc2cc(Nc3nc(N4CCC(O[C@@H]5C[C@H](COc6cccc7c6C(=O)N(C6CCC(=O)NC6=O)C7=O)N(C)C5)CC4)ncc3Cl)ccc2n(C(C)C)c1=O` (stereo partly drawn) [compound 486, 2-[(6-{[5-chloro-2-(4-{[(3R,5R)-5-({[2-(2,6-dioxopiperidin-3-yl)-1,3-dioxo-2,3-dihydro-1H-isoindol-4-yl]oxy}methyl)-1-methylpyrrolidin-3-yl]oxy}piperidin-1-yl)pyrimidin-4-yl]amino}-2-oxo-1-(propan-2-yl)-1,2-dihydroquinolin-3-yl)oxy]-N-methylacetamide], the IC50 in experiment [2] (read-out: IC50) is at least 100 nM.

With `CNC(=O)COc1cc2cc(Nc3nc(N4CCC(O[C@@H]5C[C@H](Oc6cccc7c6C(=O)N(C6CCC(=O)NC6=O)C7=O)CN(C)C5)CC4)ncc3Cl)ccc2n(C(C)C)c1=O` (stereo partly drawn) [compound 487, 2-[(6-{[5-chloro-2-(4-{[(3R,5S)-5-{[2-(2,6-dioxopiperidin-3-yl)-1,3-dioxo-2,3-dihydro-1H-isoindol-4-yl]oxy}-1-methylpiperidin-3-yl]oxy}piperidin-1-yl)pyrimidin-4-yl]amino}-2-oxo-1-(propan-2-yl)-1,2-dihydroquinolin-3-yl)oxy]-N-methylacetamide], in experiment [2] (read-out: IC50), the IC50 was at least 100 nM.

Regarding `CNC(=O)COc1cc2cc(Nc3nc(N4CCC(CN5CCC6(CC5)CCN(c5ccc(N7CCC(=O)NC7=O)c(OC)c5)C6)CC4)ncc3Cl)ccc2n(C(C)C)c1=O` [compound 509, 2-{[6-({5-chloro-2-[4-({2-[4-(2,4-dioxo-1,3-diazinan-1-yl)-3-methoxyphenyl]-2,8-diazaspiro[4.5]decan-8-yl}methyl)piperidin-1-yl]pyrimidin-4-yl}amino)-2-oxo-1-(propan-2-yl)-1,2-dihydroquinolin-3-yl]oxy}-N-methylacetamide], the half-maximal inhibitory concentration (IC50) in experiment [2] (read-out: IC50) is at least 100 nM.

With `CNC(=O)COc1cc2cc(Nc3nc(N4CCC(N5CCC6(CCN(c7cccc8c7C(=O)N(C7CCC(=O)NC7=O)C8=O)C6)CC5)CC4)ncc3Cl)ccc2n(C(C)C)c1=O` (stereo not drawn) [compound 528, 2-[(6-{[5-chloro-2-(4-{2-[2-(2,6-dioxopiperidin-3-yl)-1,3-dioxo-2,3-dihydro-1H-isoindol-4-yl]-2,8-diazaspiro[4.5]decan-8-yl}piperidin-1-yl)pyrimidin-4-yl]amino}-2-oxo-1-(propan-2-yl)-1,2-dihydroquinolin-3-yl)oxy]-N-methylacetamide], the IC50 in experiment [2] (read-out: IC50) was in the range of 10 to 50 nM.

Consider `CNC(=O)COc1cc2cc(Nc3nc(N4CCC(CN5CCCN(c6ccc(OC)c(N7CCC(=O)NC7=O)c6)CC5)CC4)ncc3Cl)ccc2n(C(C)C)c1=O` [compound 530, 2-{[6-({5-chloro-2-[4-({4-[3-(2,4-dioxo-1,3-diazinan-1-yl)-4-methoxyphenyl]-1,4-diazepan-1-yl}methyl)piperidin-1-yl]pyrimidin-4-yl}amino)-2-oxo-1-(propan-2-yl)-1,2-dihydroquinolin-3-yl]oxy}-N-methylacetamide], for which the IC50 in experiment [2] (read-out: IC50) lay within 10 to 50 nM.

For `CNC(=O)COc1cc2cc(Nc3nc(N4CCC(CN5CCCN(c6cccc(N7CCC(=O)NC7=O)c6OC)CC5)CC4)ncc3Cl)ccc2n(C(C)C)c1=O` [compound 535, 2-{[6-({5-chloro-2-[4-({4-[3-(2,4-dioxo-1,3-diazinan-1-yl)-2-methoxyphenyl]-1,4-diazepan-1-yl}methyl)piperidin-1-yl]pyrimidin-4-yl}amino)-2-oxo-1-(propan-2-yl)-1,2-dihydroquinolin-3-yl]oxy}-N-methylacetamide], in experiment [2] (read-out: IC50), the IC50 fell in the range of 10 to 50 nM.
